Measured values taken from patent US6750245B2, “C7 carbamate substituted taxanes” (FSU Research Foundation, Inc., priority 2000, dated 2004).

Test system: HCT116
Assay: In vitro cytotoxicity measured by the cell colony formation assay
Format: cell-based
Conditions: HCT116 cells; drug concentration producing 50% inhibition of colony formation; incubated with drugs 72 h at 37° C.; colonies counted after 7 days; read-out: IN VITRO ID 50 (nm) HCT116
Protocol: In Vitro Cytotoxicity Measured by the Cell Colony Formation Assay
Four hundred cells (HCT116) were plated in 60 mm Petri dishes containing 2.7 mL of medium (modified McCoy's 5a medium containing 10% fetal bovine serum and 100 units/mL penicillin and 100 µg/mL streptomycin). The cells were incubated in a CO2 incubator at 37° C. for 5 h for attachment to the bottom of Petri dishes. The compounds identified in Example 2 were made up fresh in medium at ten times the final concentration, and then 0.3 mL of this stock solution was added to the 2.7 mL of medium in the dish. The cells were then incubated with drugs for 72 h at 37° C. At the end of incubation the drug-containing media were decanted, the dishes were rinsed with 4 mL of Hank's Balance Salt Solution (HBSS), 5 mL of fresh medium was added, and the dishes were returned to the incubator for colony formation. The cell colonies were counted using a colony counter after incubation for 7 days.

**Q.** `C/C=C/C(=O)N[C@@H](c1ccco1)[C@@H](O)C(=O)O[C@H]1C[C@@]2(O)[C@@H](OC(=O)c3ccccc3)C3[C@](C)(C(=O)[C@H](O)C(=C1C)C2(C)C)[C@@H](OC(=O)NCC)C[C@H]1OC[C@@]31OC(C)=O` (some centres unmarked) [Compound 5822] was tested. Which IC50 did it give?
**A.** Its IC50 is under 0.01 µM.

**Q.** For `CCC(C)(C)OC(=O)N[C@@H](c1ccco1)[C@@H](O)C(=O)O[C@H]1C[C@@]2(O)[C@@H](OC(=O)c3ccccc3)C3[C@](C)(C(=O)[C@H](O)C(=C1C)C2(C)C)[C@@H](OC(=O)Nc1ccc(F)c(F)c1)C[C@H]1OC[C@@]31OC(C)=O` (some centres unmarked) [Compound 6404], which IC50 is on record?
**A.** Its IC50 is under 0.01 µM.

**Q.** With `CC(=O)O[C@@]12CO[C@@H]1C[C@H](OC(=O)NC(C)(C)C)[C@@]1(C)C(=O)[C@H](O)C3=C(C)[C@@H](OC(=O)[C@H](O)[C@@H](NC(=O)OC(C)(C)C)c4ccco4)C[C@@](O)([C@@H](OC(=O)c4ccccc4)C12)C3(C)C` (some centres unmarked) [Compound 5454] as the molecule, how does the IC50 read?
**A.** Its IC50 is under 0.01 µM.

**Q.** Which IC50 does the source give for `CCNC(=O)O[C@H]1C[C@H]2OC[C@@]2(OC(C)=O)C2[C@H](OC(=O)c3ccccc3)[C@]3(O)C[C@H](OC(=O)[C@H](O)[C@@H](NC(=O)OC(C)(C)C)c4ccco4)C(C)=C([C@@H](O)C(=O)[C@@]21C)C3(C)C` (some centres unmarked) [Compound 5393] here?
**A.** The IC50 was under 0.001 µM.

**Q.** How did the IC50 turn out when `CC(=O)O[C@@]12CO[C@@H]1C[C@H](OC(=O)Nc1ccccc1)[C@@]1(C)C(=O)[C@H](O)C3=C(C)[C@@H](OC(=O)[C@H](O)[C@@H](NC(=O)C=C(C)C)c4ccco4)C[C@@](O)([C@@H](OC(=O)c4ccccc4)C12)C3(C)C` (some centres unmarked) [Compound 5535, N-Debenzoyl-N-isobutenyl-3′-desphenyl-3′-(2-furyl)-7-phenylcarbamoyl taxol] was run?
**A.** Its IC50 is under 0.001 µM.

**Q.** With `CCC(C)(C)OC(=O)N[C@@H](c1ccco1)[C@@H](O)C(=O)O[C@H]1C[C@@]2(O)[C@@H](OC(=O)c3ccccc3)C3[C@](C)(C(=O)[C@H](O)C(=C1C)C2(C)C)[C@@H](OC(=O)Nc1ccccc1)C[C@H]1OC[C@@]31OC(C)=O` (some centres unmarked) [Compound 6399] as the molecule, how does the IC50 read?
**A.** Its IC50 is under 0.01 µM.

**Q.** With `CCNC(=O)O[C@H]1C[C@H]2OC[C@@]2(OC(C)=O)C2[C@H](OC(=O)c3ccccc3)[C@]3(O)C[C@H](OC(=O)[C@H](O)[C@@H](NC(=O)C=C(C)C)c4ccco4)C(C)=C([C@@H](O)C(=O)[C@@]21C)C3(C)C` (some centres unmarked) [Compound 5588] as the molecule, how does the IC50 read?
**A.** The IC50 was under 0.001 µM.

**Q.** `C/C=C/C(=O)N[C@@H](c1ccco1)[C@@H](O)C(=O)O[C@H]1C[C@@]2(O)[C@@H](OC(=O)c3ccccc3)C3[C@](C)(C(=O)[C@H](O)C(=C1C)C2(C)C)[C@@H](OC(=O)NC1CCCCC1)C[C@H]1OC[C@@]31OC(C)=O` (some centres unmarked) [Compound 5895] was tested. Which IC50 did it give?
**A.** The IC50 was under 0.001 µM.

**Q.** `CC(=O)O[C@@]12CO[C@@H]1C[C@H](OC(=O)Nc1ccc(F)c(F)c1)[C@@]1(C)C(=O)[C@H](O)C3=C(C)[C@@H](OC(=O)[C@H](O)[C@@H](NC(=O)OC(C)(C)C)c4ccco4)C[C@@](O)([C@@H](OC(=O)c4ccccc4)C12)C3(C)C` (some centres unmarked) [Compound 5415] was tested. Which IC50 did it give?
**A.** Its IC50 is under 0.001 µM.

**Q.** How did the IC50 turn out when `CCCNC(=O)O[C@H]1C[C@H]2OC[C@@]2(OC(C)=O)C2[C@H](OC(=O)c3ccccc3)[C@]3(O)C[C@H](OC(=O)[C@H](O)[C@@H](NC(=O)OC(C)(C)C)c4ccco4)C(C)=C([C@@H](O)C(=O)[C@@]21C)C3(C)C` (some centres unmarked) [Compound 5665] was run?
**A.** The IC50 was over 0.05 µM.

**Q.** With `CC(=O)O[C@@]12CO[C@@H]1C[C@H](OC(=O)NC1CCCCC1)[C@@]1(C)C(=O)[C@H](O)C3=C(C)[C@@H](OC(=O)[C@H](O)[C@@H](NC(=O)OC(C)(C)C)c4ccco4)C[C@@](O)([C@@H](OC(=O)c4ccccc4)C12)C3(C)C` (some centres unmarked) [Compound 5373] as the molecule, how does the IC50 read?
**A.** Its IC50 is under 0.01 µM.

**Q.** With `CC=CC(=O)NC(c1ccco1)C(O)C(=O)OC1CC2(O)C(OC(=O)c3ccccc3)C3C4(OC(C)=O)COC4CC(OC(=O)Nc4ccc(F)c(F)c4)C3(C)C(=O)C(O)C(=C1C)C2(C)C` (centres unmarked) [Compound 5800] as the molecule, how does the IC50 read?
**A.** The IC50 was under 0.01 µM.

**Q.** How did the IC50 turn out when `CC(=O)O[C@@]12CO[C@@H]1C[C@H](OC(=O)Nc1ccc(F)c(F)c1)[C@@]1(C)C(=O)[C@H](O)C3=C(C)[C@@H](OC(=O)[C@H](O)[C@@H](NC(=O)C=C(C)C)c4ccco4)C[C@@](O)([C@@H](OC(=O)c4ccccc4)C12)C3(C)C` (some centres unmarked) [Compound 5522] was run?
**A.** The IC50 was under 0.001 µM.

**Q.** `C/C=C/C(=O)N[C@@H](c1ccco1)[C@@H](O)C(=O)O[C@H]1C[C@@]2(O)[C@@H](OC(=O)c3ccccc3)C3[C@](C)(C(=O)[C@H](O)C(=C1C)C2(C)C)[C@@H](OC(=O)Nc1ccccc1)C[C@H]1OC[C@@]31OC(C)=O` (some centres unmarked) [Compound 5757] was tested. Which IC50 did it give?
**A.** The IC50 was under 0.01 µM.
